Test results as given in patent publication US20100305173A1, “HYDROXYETHYLAMINO SULFONAMIDE DERIVATIVES” (CoNCERT Pharmaceuticals, Inc., priority 2009, published 2010).
Like-named read-outs stand apart in the source and are kept apart here.

Test: Metabolic stability of test compounds in human liver microsomes
Format: in vitro ADME
Details: for half-life: human, liver microsomes, pH 7.4, half-life in human liver microsomes
Experimental: Determination of Metabolic Stability of Test Compounds in
Human Liver Microsomes. Human liver microsomes (20 mg/mL) were obtained from Xenotech, LLC (Lenexa, Kans.). β-nicotinamide adenine dinucleotide phosphate, reduced form (NADPH), magnesium chloride (MgCl2), and dimethyl sulfoxide (DMSO) were purchased from Sigma-Aldrich.
7.5 mM stock solutions of test compounds were prepared in DMSO. […] The diluted microsomes (375 μL) were added to wells of a 96-well deep-well polypropylene plate in triplicate. […] Reactions were initiated by addition of 125 μL of pre-warmed NADPH solution. The final reaction volume was 0.5 mL and contained 0.5 mg/mL human liver microsomes, 0.25-1.0 μM test compound, and 2 mM NADPH in 0.1 M potassium phosphate buffer, pH 7.4, and 3 mM MgCl2. The reaction mixtures were incubated at 37° C., and 50 μL aliquots were removed at 0, 5, 10, 20, and 30 minutes and added to shallow-well 96-well plates which contained 50 μL of ice-cold ACN with internal standard to stop the reactions. The plates were stored at 4° C. for 20 minutes after which 100 μL of water was added to the wells of the plate before centrifugation to pellet precipitated proteins. Supernatants were transferred to another 96-well plate and analyzed for amounts of parent compound remaining by LC-MS/MS using an Applied Bio-systems API 4000 mass spectrometer. 7-ethoxycoumarin (1 μM) was used as the positive control substrate.
Data analysis: The in vitro half-lives (tii2s) for test compounds were calculated from the slopes of the linear regression of % parent remaining (ln) vs incubation time relationship using the following formula: […]
Data analysis was performed using Microsoft Excel Software.
FIG. 1, FIG. 2, FIG. 3, Table 2, Table 3 and Table 4 show the results of this experiment.

[1] = Table 3, Exp C, read-out: T1/2 (min) Exp C
[2] = Table 3, Exp D, read-out: T1/2 (min) Exp D
[3] = Table 3, calculated average of Exp C and D, read-out: T1/2 (min) Average
[4] = Table 4, Expt I, read-out: T1/2 (min) Expt I
[5] = Table 4, Expt J, read-out: T1/2 (min) Expt J
[6] = Table 4, calculated average of Expt E-J, read-out: T1/2 (min) Average ± SD
[7] = Table 2, Exp A, read-out: T1/2 (min) Exp A
[8] = Table 2, Exp B, read-out: T1/2 (min) Exp B
[9] = Table 2, calculated average of Exp A and B, read-out: T1/2 (min) Average
[10] = Table 4, Expt G, read-out: T1/2 (min) Expt G
[11] = Table 4, Expt H, read-out: T1/2 (min) Expt H

Row | SMILES | half-life [1] [min] | half-life [2] [min] | half-life [3] [min] | half-life [4] [min] | half-life [5] [min] | half-life [6] [min] | half-life [7] [min] | half-life [8] [min] | half-life [9] [min] | also measured
1 | CC(C)CN(C[C@@H](O)[C@H](Cc1ccccc1)NC(=O)O[C@H]1CO[C@H]2OCC[C@H]21)S(=O)(=O)c1ccc2ncsc2c1 [Compound 302, reference compound] | 8.2 | 8.7 | 8.5 | 5.6 | 6.4 | 6 |  |  |  | 
2 | CCOC(=O)NCc1coc2ccc(S(=O)(=O)N(CC(C)C)C[C@@H](O)[C@H](Cc3ccccc3)NC(=O)O[C@H]3CO[C@H]4OCC[C@H]43)cc12 [Compound 301, reference compound] |  |  |  |  |  |  | 1.9 | 1.5 | 1.7 | 
3 | [2H]C([2H])([2H])C([2H])(C([2H])([2H])[2H])C([2H])([2H])N(C[C@@H](O)[C@H](Cc1ccccc1)NC(=O)O[C@]1([2H])[C@@H]2CCO[C@@H]2OC1([2H])[2H])S(=O)(=O)c1ccc2ncsc2c1 [Compound 229, (3R,3aS,6aR)-hexahydrofuro[2,3-b]furan-3-yl-((2S,3R)-3-hydroxy-4-(N-isobutylbenzo[d]thiazole-6-sulfonamido)-1-phenylbutan-2-yl)carbamate-d12] | 8.7 | 8.6 | 8.6 | 6 | 5.8 | 6.2 ± 0.4 |  |  |  | half-life [10]: 6.4 min; half-life [11]: 6.7 min
4 | [2H]C([2H])([2H])C([2H])(C([2H])([2H])[2H])C([2H])([2H])N(C[C@@H](O)[C@H](Cc1ccccc1)NC(=O)O[C@]1([2H])[C@H]2[C@H](OC([2H])([2H])C2([2H])[2H])OC1([2H])[2H])S(=O)(=O)c1ccc2ncsc2c1 [Compound 237, (3R,3aS,6aR)-hexahydrofuro[2,3-b]furan-3-yl-((2S,3R)-3-hydroxy-4-(N-isobutylbenzo[d]thiazole-6-sulfonamido)-1-phenylbutan-2-yl)carbamate-d16] | 8.3 | 7.9 | 8.1 |  |  |  |  |  |  | 
5 | Cc1nc(COc2ccc(C[C@H](NC(=O)O[C@H]3CO[C@H]4OCC[C@H]43)[C@H](O)CN(CC(C)C)S(=O)(=O)c3ccc4c(c3)OCO4)cc2)cs1 [Brecanavir, N-[3-[N-(1,3-Benzodioxol-5-ylsulfonyl)-N-isobutylamino]-2(R)-hydroxy-1-(S)-[4-(2-methylthiazol-4-ylmethoxy)benzyl]propyl]carbamic acid (3R,3aS,6aR)-perhydrofuro[2,3-b]furan-3-yl ester, reference compound] |  |  |  | 2 | 2 | 2 |  |  |  | 
6 | [2H]C([2H])([2H])C([2H])(C([2H])([2H])[2H])C([2H])([2H])N(C[C@@H](O)[C@H](Cc1ccccc1)NC(=O)O[C@]1([2H])[C@@H]2CCO[C@@H]2OC1([2H])[2H])S(=O)(=O)c1ccc2occc2c1 [Compound 106, (3R,3aS,6aR)-hexahydrofuro[2,3-b]furan-3-yl-((2S,3R)-3-hydroxy-4-(N-isobutylbenzofuran-5-sulfonamido)-1-phenylbutan-2-yl)carbamate-d12] |  |  |  | 21.5 | 46.7 | 23 ± 5.7 |  |  |  | increase in stability over darunavir and brecanavir (human liver microsomes, versus darunavir and brecanavir, in words): very significant increase in stability; half-life (Table 4, Expt E, read-out: T1/2 (min) Expt E): 31.2 min; half-life (Table 4, Expt F, read-out: T1/2 (min) Expt F): 21.2 min; half-life [11]: 18.1 min
7 | [2H]C([2H])([2H])C([2H])(C([2H])([2H])[2H])C([2H])([2H])N(C[C@@H](O)[C@H](Cc1ccccc1)NC(=O)O[C@@]1([2H])C([2H])([2H])O[C@@]2([2H])OC([2H])([2H])C([2H])([2H])[C@]21[2H])S(=O)(=O)c1ccc2ncsc2c1 [Compound 230, (3R,3aS,6aR)-hexahydrofuro[2,3-b]furan-3-yl-((2S,3R)-3-hydroxy-4-(N-isobutylbenzo[d]thiazole-6-sulfonamido)-1-phenylbutan-2-yl)carbamate-d18] | 11.7 | 15.1 | 13.4 |  |  |  |  |  |  | increase in stability over darunavir (human liver microsomes, average of two runs, versus darunavir): 36%; increase in stability over 302, its non-deuterated counterpart (human liver microsomes, versus 302, in words): an even greater increase in stability
8 | CC(C)CN(C[C@@H](O)[C@H](Cc1ccccc1)NC(=O)O[C@H]1CO[C@H]2OCC[C@H]21)S(=O)(=O)c1ccc2occc2c1 [Compound 303, reference compound] |  |  |  | 21.1 | 19.9 | 20.5 |  |  |  | 
9 | [2H]C([2H])(N(C[C@@H](O)[C@H](Cc1ccccc1)NC(=O)O[C@]1([2H])[C@@H]2CCO[C@@H]2OC1([2H])[2H])S(=O)(=O)c1ccc(NC(C)=O)cc1)C1([2H])C([2H])([2H])C([2H])([2H])C([2H])([2H])C1([2H])[2H] [Compound 236, (3R,3aS,6aR)-hexahydrofuro[2,3-b]furan-3-yl-((2S,3R)-4-(4-acetamido-N-(cyclopen-tylmethyl)phenylsulfonamido)-3-hydroxy-1-phenylbutan-2-yl)carbamate-d14] |  |  |  |  |  |  | 7.1 | 3.6 | 5.4 | 
10 | [2H]C([2H])([2H])C([2H])(C([2H])([2H])[2H])C([2H])([2H])N(C[C@@H](O)[C@H](Cc1ccccc1)NC(=O)O[C@]1([2H])[C@@H]2CCO[C@@H]2OC1([2H])[2H])S(=O)(=O)c1ccc(NC(=O)C2CC2)cc1 [Compound 233, (3R,3aS,6aR)-hexahydrofuro[2,3-b]furan-3-yl-((2S,3R)-4-(4-(cyclopropanecarbox-amido)-N-isobutylphenylsulfonamido)-3-hydroxy-1-phenylbutan-2-yl)carbamate-d12] |  |  |  |  |  |  | 4.7 | 2.4 | 3.5 | 
11 | [2H]C([2H])([2H])C([2H])(C([2H])([2H])[2H])C([2H])([2H])N(C[C@@H](O)[C@H](Cc1ccccc1)NC(=O)O[C@]1([2H])[C@@H]2CCO[C@@H]2OC1([2H])[2H])S(=O)(=O)c1ccc(NC(C)=O)cc1 [Compound 227, (3R,3aS,6aR)-hexahydrofuro[2,3-b]furan-3-yl-((2S,3R)-4-(4-acetamido-N-isobutylphenylsulfonamido)-3-hydroxy-1-phenylbutan-2-yl) carbamate-d12] |  |  |  | 7.2 | 7.1 | 6.3 ± 1 | 9 | 4.3 | 6.6 | half-life [10]: 5.7 min; half-life [11]: 5.3 min
12 | [2H]C([2H])([2H])C([2H])(C([2H])([2H])[2H])C([2H])([2H])N(C[C@@H](O)[C@H](Cc1ccccc1)NC(=O)O[C@]1([2H])[C@@H]2CCO[C@@H]2OC1([2H])[2H])S(=O)(=O)c1ccc2occ(CNC(=O)OCC)c2c1 [Compound 235, ((5-(N-((2R,3S)-3-(((((3R,3aS,6aR)-hexahydrofuro[2,3-b]furan-3-yl)oxy)carbonyl)amino)-2-hydroxy-4-phenylbutyl)-isobutylsulfamoyl)benzofuran-3-yl)methyl)carbamic acid ethyl ester-d12] |  |  |  |  |  |  | 2.4 | 1.5 | 2 | 
